Reference: the supplement of paper PMC13380429

What was measured:
Settings in all cases: 72 h
Vero E6 [1] = test: cell viability relative to DMSO; higher = less toxic
HepG2 [2] = test: as above
U2OS [3] = test: as above
Caco-2 [4] = test: as above
Calu-3 [5] = test: as above
Vero E6 [6] = test: relative viability EC50 (midpoint between 100% and the lowest measured viability); higher = less toxic
HepG2 [7] = test: as above
U2OS [8] = test: as above
Calu-3 [9] = test: as above
Vero E6 [10] = test: drug sensitivity score (DSS) for viability; higher = more toxic; extreme values may be limits of the assay
HepG2 [11] = test: as above
U2OS [12] = test: as above
Caco-2 [13] = test: as above
Calu-3 [14] = test: as above
Caco-2 [15] = test: relative viability EC50 (midpoint between 100% and the lowest measured viability); higher = less toxic

| Compound | cell viability (Vero E6 [1]; 1 nM) [%] | cell viability (Vero E6 [1]; 10 nM) [%] | cell viability (Vero E6 [1]; 100 nM) [%] | cell viability (Vero E6 [1]; 1000 nM) [%] | cell viability (Vero E6 [1]; 10000 nM) [%] | cell viability (HepG2 [2]; 1 nM) [%] | cell viability (HepG2 [2]; 10 nM) [%] | cell viability (HepG2 [2]; 100 nM) [%] | cell viability (HepG2 [2]; 1000 nM) [%] | cell viability (HepG2 [2]; 10000 nM) [%] | cell viability (U2OS [3]; 1 nM) [%] | cell viability (U2OS [3]; 10 nM) [%] | cell viability (U2OS [3]; 100 nM) [%] | cell viability (U2OS [3]; 1000 nM) [%] | cell viability (U2OS [3]; 10000 nM) [%] | cell viability (Caco-2 [4]; 1 nM) [%] | cell viability (Caco-2 [4]; 10 nM) [%] | cell viability (Caco-2 [4]; 100 nM) [%] | cell viability (Caco-2 [4]; 1000 nM) [%] | cell viability (Caco-2 [4]; 10000 nM) [%] | cell viability (Calu-3 [5]; 1 nM) [%] | cell viability (Calu-3 [5]; 10 nM) [%] | cell viability (Calu-3 [5]; 100 nM) [%] | cell viability (Calu-3 [5]; 1000 nM) [%] | cell viability (Calu-3 [5]; 10000 nM) [%] | relative viability EC50 (Vero E6 [6]) [µM] | relative viability EC50 (HepG2 [7]) [µM] | relative viability EC50 (U2OS [8]) [µM] | relative viability EC50 (Calu-3 [9]) [µM] | drug sensitivity score (Vero E6 [10]) | drug sensitivity score (HepG2 [11]) | drug sensitivity score (U2OS [12]) | drug sensitivity score (Caco-2 [13]) | drug sensitivity score (Calu-3 [14]) | relative viability EC50 (Caco-2 [15]) [µM] |
| --- | --- | --- | --- | --- | --- | --- | --- | --- | --- | --- | --- | --- | --- | --- | --- | --- | --- | --- | --- | --- | --- | --- | --- | --- | --- | --- | --- | --- | --- | --- | --- | --- | --- | --- | --- |
| CCCCn1ccc(N2CCC(c3ccccc3)CC2)c(Cl)c1=O | 106 | 106 | 104 | 106 | 97.2 | 99.2 | 101 | 86.7 | 108 | 78.9 | 100 | 98.7 | 100 | 98.8 | 99 | 102 | 103 | 87.7 | 111 | 68.4 | 107 | 96.7 | 87 | 99.3 | 89.8 | > 10 | > 10 | > 10 | > 10 | 0 | 0.4 | 0 | 1 | 0 | – |
| CN(N=O)C(=O)N[C@@H](C=O)[C@@H](O)[C@H](O)[C@H](O)CO [streptozotocin] | 98.5 | 98.1 | 98.4 | 96.7 | 92.6 | 98.3 | 90.7 | 104 | 101 | 101 | 106 | 97.5 | 100 | 102 | 103 | 106 | 82.3 | 79.9 | 85.2 | 96.2 | – | – | – | – | – | > 10 | > 10 | > 10 | – | 0 | 0 | 0 | 1 | – | > 10 |
| Cc1nc(NC(=O)N2CCC[C@H]2C(N)=O)sc1-c1csc(C(C)(C)C)n1 [A66] | 98.5 | 96.5 | 95.3 | 101 | 87.9 | 84.2 | 96 | 84 | 89.8 | 73.3 | 103 | 97.4 | 98.6 | 93 | 88.7 | 98.5 | 87.5 | 95.8 | 92 | 78.9 | – | – | – | – | – | > 10 | > 10 | > 10 | – | 0 | 0 | 0 | 1 | – | > 10 |
| CCCS(=O)(=O)Nc1ccc(F)c(C(=O)c2c[nH]c3ncc(Cl)cc23)c1F [PLX4720] | 106 | 100 | 100 | 106 | 82.5 | 104 | 94.6 | 104 | 90.9 | 49.5 | 102 | 95.8 | 97.1 | 100 | 101 | 96.8 | 96.9 | 93.6 | 91 | 73.3 | 93.4 | 89.8 | 100 | 106 | 106 | > 10 | 1.82 | > 10 | > 10 | 0.2 | 4.2 | 0 | 1.7 | 0 | – |
| CCCn1c(=O)c2[nH]c(C3CCCC3)nc2n(CCC)c1=O [DPCPX] | 106 | 107 | 98.2 | 99.8 | 89.1 | 102 | 105 | 99.8 | 101 | 91.5 | 100 | 102 | 99.8 | 96.6 | 100 | 105 | 106 | 106 | 106 | 93.3 | – | – | – | – | – | > 10 | > 10 | > 10 | – | 0 | 0 | 0 | 0 | – | > 10 |
| COc1cc(Nc2ncc3c(n2)-c2ccc(Cl)cc2C(c2c(F)cccc2OC)=NC3)ccc1C(=O)O [alisertib] | 96.3 | 103 | 84.4 | 82.7 | 67 | 102 | 98 | 58.7 | 66.6 | 61.4 | 102 | 99.7 | 81.5 | 78.2 | 58.6 | 102 | 90 | 83 | 87.9 | 72.8 | 106 | 105 | 98.1 | 88.4 | 78.8 | – | – | – | > 10 | 4.1 | 13.1 | 5.7 | 3.5 | 1.6 | – |
| CCC(=O)O[C@]1(C(=O)CCl)[C@@H](C)C[C@H]2[C@@H]3CCC4=CC(=O)C=C[C@]4(C)[C@@]3(F)[C@@H](O)C[C@@]21C [clobetasol-propionate] | 99.6 | 96.5 | 107 | 93.4 | 95.2 | 107 | 105 | 94.5 | 99.4 | 77.8 | 95.7 | 95.7 | 93.1 | 90.7 | 91.2 | – | – | – | – | – | 91.5 | 96 | 82.2 | 94 | 89.7 | > 10 | > 10 | > 10 | > 10 | 0 | 0.8 | 0 | – | 0 | – |
| C#C[C@]1(OC(C)=O)CC[C@H]2[C@@H]3CCC4=CC(=O)CC[C@@H]4[C@H]3CC[C@@]21C [norethindrone-acetate] | 104 | 108 | 110 | 90.5 | 98.1 | – | – | – | – | – | 100 | 99.6 | 98.5 | 98.5 | 94.9 | 91.8 | 97.1 | 84.7 | 95 | 70.4 | 93.2 | 82.9 | 90.8 | 104 | 95.6 | > 10 | – | > 10 | > 10 | 0 | – | 0 | 2.3 | 0 | – |
| COC(=O)c1cc(OC)c2c(c1-c1c(CO)cc(OC)c3c1OCO3)OCO2 [bicyclol] | 108 | 105 | 104 | 99.9 | 100 | 90.5 | 97.8 | 92.1 | 108 | 100 | 101 | 97.6 | 97.8 | 98.2 | 94.8 | 89.9 | 98.7 | 104 | 101 | 101 | – | – | – | – | – | > 10 | > 10 | > 10 | – | 0 | 0 | 0 | 0 | – | > 10 |
| Cc1nc2sccn2c(=O)c1CCN1CCC(=C(c2ccccc2)c2ccc(F)cc2)CC1 | 102 | 101 | 107 | 100 | 94.5 | 104 | 96.3 | 100 | 96.9 | 95.8 | 95.6 | 97.6 | 97.3 | 98.7 | 95 | 95.3 | 86.7 | 97 | 98.4 | 97.2 | – | – | – | – | – | > 10 | > 10 | > 10 | – | 0 | 0 | 0 | 0 | – | > 10 |
| Clc1ccc(C(Cn2ccnc2)OCc2c(Cl)cccc2Cl)c(Cl)c1 (stereo not drawn) [isoconazole] | 102 | 101 | 97.7 | 95.7 | 101 | – | – | – | – | – | 104 | 103 | 122 | 110 | 92 | 97 | 96.4 | 96.8 | 100 | 71.7 | 95.8 | 97.9 | 105 | 98.5 | 84.2 | > 10 | – | > 10 | > 10 | 0 | – | 0 | 1.2 | 0.4 | – |
| NP(N)(=O)NC(=O)c1ccc(F)cc1 [flurofamide] | 103 | 102 | 103 | 97.6 | 102 | 101 | 98.6 | 90.1 | 95 | 103 | 100 | 102 | 97.3 | 99.4 | 96 | 95.9 | 96.4 | 90.9 | 94.7 | 91 | – | – | – | – | – | > 10 | > 10 | > 10 | – | 0 | 0 | 0 | 0 | – | > 10 |
| O=C(Nc1c[nH]nc1-c1nc2ccc(CN3CCOCC3)cc2[nH]1)NC1CC1 [AT-9283] | 99.9 | 93.1 | 90.4 | 86.7 | 66.7 | 96.6 | 97.7 | 82.4 | 57.3 | 5.8 | 98.2 | 97.7 | 80.6 | 74.7 | 1.1 | 87.1 | 102 | 90.9 | 90.7 | 71.8 | 107 | 96.9 | 85.9 | 65.4 | 43.6 | – | 0.93 | 1.66 | 0.461 | 3.1 | 10.8 | 8.8 | 2 | 8 | – |
| CCOc1ccc(C(=O)OCCN(CC)CC)cc1 [parethoxycaine] | 94.6 | 95.6 | 92.3 | 97.5 | 111 | 98.6 | 116 | 106 | 108 | 102 | 101 | 92.8 | 103 | 98.1 | 98.8 | 97.1 | 85.1 | 95.6 | 93.7 | 104 | – | – | – | – | – | > 10 | > 10 | > 10 | – | 0 | 0 | 0 | 0 | – | > 10 |
| COC[C@H]1OC(=O)c2coc3c2[C@@]1(C)C1=C(C3=O)[C@@H]2CCC(=O)[C@@]2(C)C[C@H]1OC(C)=O [wortmannin] | 106 | 103 | 97.3 | 88.9 | 76.8 | 98.4 | 97.4 | 98.2 | 98.2 | 86.7 | 95.1 | 99.3 | 94.1 | 91.1 | 65.1 | 102 | 99.3 | 88.2 | 58.3 | 40.8 | 93.8 | 90.6 | 82.7 | 69.5 | 51.4 | > 10 | > 10 | – | – | 1.7 | 0.3 | 2.8 | 9.1 | 7.9 | 0.409 |
